According to patent publication US12528783B2, “PqsR inverse agonists” (priority 2020, dated 2026):

Experiments:
PqsR = molecular target: T1, PqsR (Pseudomonas aeruginosa, UniProt Q9I4X0); experiment: PqsR inverse agonistic activity, reporter gene assay in E. coli; format: cell-based
T1 construct: expressed in transfected cells; host or cells: Escherichia coli DH5a carrying pEAL08-2
Description: Inhibition of pqsR-dependent gene expression of test compounds was determined in an E. coli based-galactosidase reporter gene assay. Escherichia coli DH5a was transfected with pEAL08-2 plasmid encoding pqsR under control of promoter tac and β-galactosidase reporter gene lacZ under control of promoter pqsA. Antagonistic effects of compounds were evaluated in the presence of/in competition to 50 nM PQS. A positive control was used to ensure the reliability of individual assays. First, PQS was diluted in methanol and added to the wells of a glass coated 96-deep-well plate, and the solvent was evaporated. Then, compounds were added in 5 μL DMSO to final concentrations of 0.001-10 μM. Overnight cultures of E. coli DH5a×pEAL08-2 were diluted 1:100 in LB medium with ampicillin (50 μg/ml) and incubated at 37° C. with shaking until it reached an OD600 of 0.2. Finally, 995 μL of culture was added to each well and the β-galactosidase activity was determined by ortho-nitrophenyl-β-galactoside conversion in permeabilized cells after a 2.5 h incubation period (37° C., 180 rpm). OD600, OD420, and OD550 were measured using POLARstar Omega (BMG Labtech, Ortenberg, Germany), and the activity was expressed as ratio of the slope of B-galactosidase activity between basal control (no PQS) and solvent control. IC50 values of antagonists were determined by variation of the concentration of the test compounds.

[1] = test system: P. aeruginosa pyocyanin production; experiment: Pyocyanin assay; format: cell-based; conditions: Pseudomonas aeruginosa, PA14, 16 h, read-out: IC50-value towards pyocyanin production, PA14 in PPGAS medium, 16 h
Description: Inhibition of P. aeruginosa pyocyanin production by compounds was determined photometrically as described before. In short, an overnight culture of PA14 in PPGAS medium was washed, diluted in medium to a start OD600 of 0.02, and incubated for 16 h (37° C., 200 rpm, relative humidity 75%) in the presence of test compounds. Then, cultures were extracted with chloroform and re-extracted with 0.2 M HCl. Protonated red colored pyocyanin was determined by measuring OD520 and normalizing to OD600.

[2] = Kinetic Turbidimetric Aqueous Solubility; format: physicochemical; conditions: aqueous buffer, kinetic from dmso stock, PBS buffer, room temperature
Description: Kinetic Turbidimetric Aqueous Solubility at room temperature for 5 min. Test compound was diluted in PBS buffer to give a range of concentrations (typically 0.4, 2, 4, 20, 40, 100, and 200 μM, final DMSO concentration 2%) and incubated at room temperature for 5 min. Absorbance was measured at a wavelength of 620 nm and the solubility was estimated from the concentration of test compound that produces an increase in absorbance above the vehicle control (i.e., […]). Data was analyzed by fitting a four parameter sigmoidal function to the measured and normalized absorbances and AUC calculation providing access to Log S (decadic logarithm of the solubility).

T1 sequence (Q9I4X0 whole entry): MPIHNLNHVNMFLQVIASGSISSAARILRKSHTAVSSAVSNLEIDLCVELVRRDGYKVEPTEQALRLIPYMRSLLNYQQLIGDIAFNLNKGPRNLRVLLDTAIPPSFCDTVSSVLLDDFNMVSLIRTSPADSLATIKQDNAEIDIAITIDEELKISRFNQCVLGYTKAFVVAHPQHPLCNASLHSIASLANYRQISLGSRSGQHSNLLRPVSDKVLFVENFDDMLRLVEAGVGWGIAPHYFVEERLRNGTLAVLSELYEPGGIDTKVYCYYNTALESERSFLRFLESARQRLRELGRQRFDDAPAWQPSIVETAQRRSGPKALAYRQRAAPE

Row | SMILES | IC50 (PqsR) | IC50 [1] | solubility at 5 min [2]
1 | Fc1ccccc1Nc1ccc(-n2cc(CNc3ccnc(C(F)(F)F)c3)nn2)cc1 [Compound 01] | ≤ 50 nM | 201 to 500 nM | > 50 µM
2 | FC(F)(F)c1cc(NCc2cn(-c3cccc(Nc4ccccc4)c3)nn2)ccn1 [Compound 02] | ≤ 50 nM | ≤ 100 nM | > 10 µM
3 | Fc1cccc(Nc2cccc(-n3cc(CNc4ccnc(C(F)(F)F)c4)nn3)c2)c1 [Compound 03] | – | 101 to 200 nM | > 10 µM
4 | Fc1ccc(Nc2cccc(-n3cc(CNc4ccnc(C(F)(F)F)c4)nn3)c2)cc1 [Compound 05] | ≤ 50 nM | 201 to 500 nM | > 25 µM
5 | Fc1ccc(F)c(Nc2cccc(-n3cc(CNc4ccnc(C(F)(F)F)c4)nn3)c2)c1 [Compound 06] | – | 101 to 200 nM | > 10 µM
6 | Fc1ccc(F)c(Nc2cccc(-n3cc(CNc4cc(Cl)nc(C(F)(F)F)c4)nn3)c2)c1 [Compound 07] | – | 101 to 200 nM | > 25 µM
7 | Nc1cccc(-c2ncc(CNc3cc(Cl)nc(C(F)(F)F)c3)cn2)c1 [Compound 10] | – | 501 to 1000 nM | ≥ 100 µM
8 | Nc1cc(-c2ncc(CNc3cc(Cl)nc(C(F)(F)F)c3)cn2)ccc1Cl [Compound 11] | – | 501 to 1000 nM | > 25 µM
9 | FC(F)(F)c1cc(SCc2nc3cc(Cc4ccccc4)ccc3[nH]2)ccn1 [Compound 12] | ≤ 50 nM | 201 to 500 nM | > 25 µM
10 | Nc1cc(SCc2nc3cc(Nc4ccccc4)ccc3[nH]2)cc(C(F)(F)F)n1 [Compound 13] | – | 101 to 200 nM | > 10 µM
11 | Nc1cc(SCc2nc3cc(Nc4ccccc4)ccc3[nH]2)nc(C(F)(F)F)n1 [Compound 14] | ≤ 50 nM | 101 to 200 nM | > 25 µM
12 | FC(F)(F)c1cc(SCc2nc3ccc(Nc4ccccc4)cc3o2)ccn1 [Compound 15] | 51 to 250 nM | 201 to 500 nM | –
13 | FC(F)(F)c1cc(SCc2nc3ccc(Nc4ccccc4)cc3s2)ccn1 [Compound 16] | 51 to 250 nM | 501 to 1000 nM | –
14 | FC(F)(F)c1cc(SCc2nc3cc(NC4CCCCC4)ccc3[nH]2)ccn1 [Compound 17] | 51 to 250 nM | 501 to 1000 nM | –
15 | FC(F)(F)c1cc(SCc2nc3cc(Nc4ccccn4)ccc3[nH]2)ccn1 [Compound 18] | – | 201 to 500 nM | > 50 µM
16 | FC(F)(F)c1cc(SCc2nc3cc(Nc4cccnc4)ccc3[nH]2)ccn1 [Compound 19] | – | 501 to 1000 nM | ≥ 100 µM
17 | Nc1cc(SCc2nc3cc(Nc4cccnc4)ccc3[nH]2)cc(C(F)(F)F)n1 [Compound 20] | – | 201 to 500 nM | > 25 µM
18 | Fc1ccccc1Nc1ccc2[nH]c(CSc3ccnc(C(F)(F)F)c3)nc2c1 [Compound 22] | – | – | > 25 µM
19 | Fc1cccc(Nc2ccc3[nH]c(CSc4ccnc(C(F)(F)F)c4)nc3c2)c1 [Compound 23] | – | ≤ 100 nM | > 10 µM
20 | Nc1cc(SCc2nc3cc(Nc4cccc(F)c4)ccc3[nH]2)cc(C(F)(F)F)n1 [Compound 24] | – | ≤ 100 nM | > 10 µM
21 | Fc1ccc(Nc2ccc3[nH]c(CSc4ccnc(C(F)(F)F)c4)nc3c2)cc1 [Compound 26] | – | – | > 25 µM
22 | FC(F)(F)c1cc(SCc2nc3cc(Nc4ccccc4Cl)ccc3[nH]2)ccn1 [Compound 27] | – | ≤ 100 nM | –
23 | FC(F)(F)c1cc(SCc2nc3cc(Nc4cccc(Cl)c4)ccc3[nH]2)ccn1 [Compound 28] | – | – | > 10 µM
24 | Cc1ccccc1Nc1ccc2[nH]c(CSc3ccnc(C(F)(F)F)c3)nc2c1 [Compound 29] | – | 101 to 200 nM | –
25 | Cc1cccc(Nc2ccc3[nH]c(CSc4ccnc(C(F)(F)F)c4)nc3c2)c1 [Compound 30] | – | 101 to 200 nM | > 10 µM

Row | SMILES | IC50 (PqsR) | IC50 [1] | solubility at 5 min [2]
26 | Cc1ccc(Nc2ccc3[nH]c(CSc4ccnc(C(F)(F)F)c4)nc3c2)cc1 [Compound 31] | – | 101 to 200 nM | > 10 µM
27 | COc1cccc(Nc2ccc3[nH]c(CSc4ccnc(C(F)(F)F)c4)nc3c2)c1 [Compound 33] | – | 101 to 200 nM | > 10 µM
28 | COc1ccc(Nc2ccc3[nH]c(CSc4ccnc(C(F)(F)F)c4)nc3c2)cc1 [Compound 34] | 51 to 250 nM | – | > 25 µM
29 | NC(=O)c1ccccc1Nc1ccc2[nH]c(CSc3ccnc(C(F)(F)F)c3)nc2c1 [Compound 35] | – | 101 to 200 nM | > 50 µM
30 | FC(F)(F)Oc1ccccc1Nc1ccc2[nH]c(CSc3ccnc(C(F)(F)F)c3)nc2c1 [Compound 38] | – | 201 to 500 nM | –
31 | Cc1ccc(Nc2ccc3[nH]c(CSc4ccnc(C(F)(F)F)c4)nc3c2)nc1 [Compound 40] | – | – | > 25 µM
32 | Fc1cncc(Nc2ccc3[nH]c(CSc4ccnc(C(F)(F)F)c4)nc3c2)c1 [Compound 41] | – | 201 to 500 nM | > 50 µM
33 | Fc1cccc(F)c1Nc1ccc2[nH]c(CSc3ccnc(C(F)(F)F)c3)nc2c1 [Compound 42] | ≤ 50 nM | 101 to 200 nM | > 25 µM
34 | Fc1cc(F)cc(Nc2ccc3[nH]c(CSc4ccnc(C(F)(F)F)c4)nc3c2)c1 [Compound 43] | – | – | > 25 µM
35 | Fc1ccc(F)c(Nc2ccc3[nH]c(CSc4ccnc(C(F)(F)F)c4)nc3c2)c1 [Compound 44] | – | – | > 25 µM
36 | Fc1cccc(Nc2ccc3[nH]c(CSc4ccnc(C(F)(F)F)c4)nc3c2)c1F [Compound 46] | 51 to 250 nM | 201 to 500 nM | > 10 µM
37 | Fc1ccc(Nc2ccc3[nH]c(CSc4ccnc(C(F)(F)F)c4)nc3c2)cc1F [Compound 47] | – | ≤ 100 nM | > 10 µM
38 | Fc1c(Nc2ccc3[nH]c(CSc4ccnc(C(F)(F)F)c4)nc3c2)cccc1C(F)(F)F [Compound 48] | – | 101 to 200 nM | –
39 | Fc1cc(C(F)(F)F)ccc1Nc1ccc2[nH]c(CSc3ccnc(C(F)(F)F)c3)nc2c1 [Compound 49] | – | 101 to 200 nM | > 25 µM
40 | Fc1ccc(C(F)(F)F)cc1Nc1ccc2[nH]c(CSc3ccnc(C(F)(F)F)c3)nc2c1 [Compound 50] | – | 201 to 500 nM | –
41 | Cc1ccc(Nc2ccc3[nH]c(CSc4ccnc(C(F)(F)F)c4)nc3c2)cc1F [Compound 51] | – | ≤ 100 nM | –
42 | COc1ccc(Nc2ccc3[nH]c(CSc4ccnc(C(F)(F)F)c4)nc3c2)cc1F [Compound 53] | – | – | > 25 µM
43 | COc1cc(F)cc(Nc2ccc3[nH]c(CSc4ccnc(C(F)(F)F)c4)nc3c2)c1 [Compound 54] | – | 201 to 500 nM | > 25 µM
44 | Cc1c(F)cc(Nc2ccc3[nH]c(CSc4ccnc(C(F)(F)F)c4)nc3c2)cc1F [Compound 55] | – | 101 to 200 nM | > 10 µM
45 | Fc1cccc(Nc2cc(F)c3[nH]c(CSc4ccnc(C(F)(F)F)c4)nc3c2)c1 [Compound 57] | – | ≤ 100 nM | > 10 µM
46 | Fc1cc(Nc2cccnc2)cc2nc(CSc3ccnc(C(F)(F)F)c3)[nH]c12 [Compound 58] | – | 201 to 500 nM | > 50 µM
47 | FC(F)(F)c1cc(NCc2nc3cc(Nc4ccccc4)ccc3[nH]2)ccn1 [Compound 60] | – | 201 to 500 nM | ≥ 100 µM
48 | Fc1ccccc1Nc1ccc2[nH]c(COc3ccnc(C(F)(F)F)c3)nc2c1 [Compound 63] | – | – | > 10 µM
49 | Fc1cccc(Nc2ccc3[nH]c(COc4ccnc(C(F)(F)F)c4)nc3c2)c1 [Compound 64] | – | 201 to 500 nM | > 25 µM
50 | FC(F)(F)c1cc(OCc2nc3cc(Nc4ccccc4Cl)ccc3[nH]2)ccn1 [Compound 65] | – | 201 to 500 nM | –
